Source: patent publication US20140113945A1, “Novel Pyrrole Inhibitors of S-Nitrosoglutathione Reductase as Therapeutic Agents for Liver Toxicity” (priority 2011, published 2014)
Read-outs that look alike come from different tables or passages of the source. Marks after values point to notes of the source that are not given here.

Test system: acetaminophen (APAP) induced liver toxicity
Conditions: for mean ALT / mean AST / increase in ALT compared to control saline group / increase in AST compared to control saline group / reduction in ALT compared to APAP only / reduction in AST compared to APAP only: mice; for mean ALT / mean AST: substance IV + APAP 300 mg/kg PO; for increase in ALT compared to control saline group / increase in AST compared to control saline group / reduction in ALT compared to APAP only / reduction in AST compared to APAP only: substance IV after APAP 300 mg/kg PO, 24-hour; for Alkaline phosphatase (ALK) levels: mouse, in vivo

| Compound | mean ALT (24-hours post-APAP) | mean AST (24-hours post-APAP) | mean ALT (72-hours post-APAP) | mean AST (72-hours post-APAP) | mean ALT (6 hours post-APAP) | mean AST (6 hours post-APAP) | increase in ALT compared to control saline group | increase in AST compared to control saline group | reduction in ALT compared to APAP only | reduction in AST compared to APAP only | Alkaline phosphatase (ALK) levels |
| --- | --- | --- | --- | --- | --- | --- | --- | --- | --- | --- | --- |
| N[C@@H](CCC(=O)N[C@@H](CSN=O)C(=O)NCC(=O)O)C(=O)O [GSNO, S-nitrosoglutathione] | 1454.3 | 518.0* | 31.8* | 55.0* | 571.8* | 484.5* | ~5 fold | ~4 fold | 76% | 91% | did not significantly differ from normal controls |
| Cc1cc(C(N)=O)ccc1-n1c(CCC(=O)O)ccc1-c1ccc(Cl)cc1O [Compound 41] | 4749.4 | 3783.6 | 97.6 | 492.6 | 3608.0 | 3741.2 | 43 fold | 29 fold | 23% | 34% | did not significantly differ from normal controls |
